We go through 19 compounds from patent US9273057B2 (Bristol-Myers Squibb Company, priority 2012, dated 2016).

Molecules are shown by their SMILES.

For the assay, the target named is CK2A1 (CK2α/β) (Homo sapiens, UniProt P68400). Put plainly: CK2 kinase assay, CK2A1 (CK2α/β). The class given is biochemical. Conditions: Table A; read-out: CK2A1 (CK2α/β) (IC50).
Sequence of CK2A1 (CK2α/β) (P68400 whole entry, species assumed): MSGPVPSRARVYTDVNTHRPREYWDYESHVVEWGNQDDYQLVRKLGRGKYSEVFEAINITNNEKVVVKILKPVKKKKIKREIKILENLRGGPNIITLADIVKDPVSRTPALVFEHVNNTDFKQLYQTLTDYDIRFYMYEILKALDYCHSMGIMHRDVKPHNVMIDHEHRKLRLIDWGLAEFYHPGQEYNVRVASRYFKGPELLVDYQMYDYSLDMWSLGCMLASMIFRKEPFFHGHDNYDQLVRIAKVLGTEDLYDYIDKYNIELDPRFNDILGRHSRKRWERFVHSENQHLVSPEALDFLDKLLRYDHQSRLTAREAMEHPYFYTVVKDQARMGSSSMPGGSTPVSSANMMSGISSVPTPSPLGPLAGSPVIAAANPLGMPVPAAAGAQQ
Sequence of CK2A1 (CK2α/β) (P67870 whole entry partner, species assumed): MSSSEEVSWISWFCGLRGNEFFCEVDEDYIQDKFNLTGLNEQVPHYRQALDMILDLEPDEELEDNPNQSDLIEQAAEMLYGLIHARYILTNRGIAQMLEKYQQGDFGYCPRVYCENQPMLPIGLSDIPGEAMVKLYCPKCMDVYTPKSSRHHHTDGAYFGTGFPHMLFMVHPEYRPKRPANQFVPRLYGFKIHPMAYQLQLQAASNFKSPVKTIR
As for `N#Cc1cc(Nc2nc(NC3CC3)c3ncc(C#N)n3n2)c(Cl)c(N2CC3CNCC3C2)c1` (stereo not shown) [Example 455, 2-((2-chloro-5-cyano-3-(hexahydropyrrolo[3,4-c]pyrrol-2(1H)-yl)phenyl)amino)-4-(cyclopropylamino)imidazo[2,1-f][1,2,4]triazine-7-carbonitrile], the IC50 stood at 0.49 nM.
The value for `CC(C)(C)N1CCN(Cc2cc(C#N)cc(Nc3nc(NC4CC4)c4ncc(C#N)n4n3)c2Cl)CC1` [Example 472, 2-((3-[(4-tert-butylpiperazin-1-yl)methyl]-2-chloro-5-cyanophenyl}amino)-4-(cyclopropylamino)imidazo[2,1-f][1,2,4]triazine-7-carbonitrile] was 1.7 nM.
The value for `N#Cc1cnc2c(NC3CC3)nc(Nc3cc(C(F)F)cc(NCC(O)CO)c3Cl)nn12` (stereo not shown) [Example 254, 2-((2-chloro-5-(difluoromethyl)-3-((2,3-dihydroxypropyl)amino)phenyl)amino)-4-(cyclopropylamino)imidazo[2,1-f][1,2,4]triazine-7-carbonitrile] was 0.68 nM; that for `CCNc1nc(Nc2cc(C#N)cc(N3CC[C@@H](NC(=O)OC)[C@H](OCOP(=O)(O)O)C3)c2Cl)nn2c(C#N)cnc12` [Example 345, sodium (((3R,4R)-1-(2-chloro-5-cyano-3-((7-cyano-4-(ethylamino)imidazo[2,1-f][1,2,4]triazin-2-yl)amino)phenyl)-4-((methoxycarbonyl)amino)piperidin-3-yl)oxy)methyl phosphate] was 0.8 nM; that for `COC(=O)N1CCC(c2cc(C#N)cc(Nc3nc(NC4CC4)c4ncc(C#N)n4n3)c2Cl)CC1` [Example 226, methyl 4-(2-chloro-5-cyano-3-((7-cyano-4-(cyclopropylamino)imidazo[2,1-f][1,2,4]triazin-2-yl)amino)phenyl)piperidine-1-carboxylate] was 0.48 nM.
The figure for `N#Cc1cc(Nc2nc(NC3CC3)c3ncc(C#N)n3n2)c(Cl)c([C@H]2CCC[C@@H](N3CC(O)C3)C2)c1` (single isomer, unassigned) [Example 731] is 1.46 nM; for `CO[C@@H]1CN(c2cc(C#N)cc(Nc3nc(NC4CC4)c4ncc(C#N)n4n3)c2Cl)C[C@@H]1NS(C)(=O)=O` [Example 289, N-((3S,4R)-1-(2-chloro-5-cyano-3-((7-cyano-4-(cyclopropylamino)imidazo[2,1-f][1,2,4]triazin-2-yl)amino)phenyl)-4-methoxy-3-pyrrolidinyl)methanesulfonamide] it is 0.59 nM; for `N#Cc1cc(Nc2nc(NC3CC3)c3ncc(C#N)n3n2)c(Cl)cc1CCCN1CCOCC1` [Example 567, 2-((2-chloro-5-cyano-4-(3-morpholinopropyl)phenyl)amino)-4-(cyclopropylamino)imidazo[2,1-f][1,2,4]triazine-7-carbonitrile] it is 4.06 nM.
With `N#Cc1cc(CN2CCCC3(COC3)C2)c(Cl)c(Nc2nc(NC3CC3)c3ncc(C#N)n3n2)c1` [Example 463, 2-((3-(2-oxa-6-azaspiro[3.5]nonan-6-ylmethyl)-2-chloro-5-cyanophenyl)amino)-4-(cyclopropylamino)imidazo[2,1-f][1,2,4]triazine-7-carbonitrile], the IC50 turned out to be 1 nM.
`CC(CC(C)c1cc(Cl)c(Nc2nc(NC3CC3)c3ncc(C#N)n3n2)cc1C#N)NCCC(F)(F)F` (single isomer, unassigned) [Example 735, 2-[(2-chloro-5-cyano-4-{4-[(3,3,3-trifluoropropyl)amino]pentan-2-yl}phenyl)amino]-4-(cyclopropylamino)imidazo [2,1-f][1,2,4]triazine-7-carbonitril]: the IC50 was 4.37 nM.
The value for `CCNc1nc(Nc2ccc3c(c2)c(C#N)cn3C2CCN(C3CN(C[C@H](C)O)C3)CC2)nn2c(C#N)cnc12` [Example 834, (S)-2-((3-cyano-1-(1-(1-(2-hydroxypropyl)azetidin-3-yl)piperidin-4-yl)-1H-indol-5-yl)amino)-4-(ethylamino)imidazo[2,1-f][1,2,4]triazine-7-carbonitrile] was 0.6 nM; that for `N#Cc1cc(Nc2nc(NC3CC3)c3ncc(C#N)n3n2)c(Cl)c(OC2CCN(C3COC3)CC2)c1` [Example 425, 2-((2-chloro-5-cyano-3-((1-(oxetan-3-yl)piperidin-4-yl)oxy)phenyl)amino)-4-(cyclopropylamino)imidazo[2,1-f][1,2,4]triazine-7-carbonitrile] was 0.73 nM.
Consider `N#Cc1cc(Nc2nc(NC3CC3)c3ncc(C#N)n3n2)c(Cl)c(N2CCCOC2=O)c1` [Example 627, 2-((2-chloro-5-cyano-3-(2-oxo-1,3-oxazinan-3-yl)phenyl)amino)-4-(cyclopropylamino)imidazo[2,1-f][1,2,4]triazine-7-carbonitrile], for which the IC50 amounted to 0.83 nM.
In the case of `N#Cc1cc(Nc2nc(NC3CC3)c3ncc(C#N)n3n2)c(Cl)c(N2CCN(CC(O)CF)CC2=O)c1` (racemic) [Example 622, (+/−)-2-((2-chloro-5-cyano-3-(4-(3-fluoro-2-hydroxypropyl)-2-oxopiperazin-1-yl)phenyl)amino)-4-(cyclopropylamino)imidazo[2,1-f][1,2,4]triazine-7-carbonitrile], the IC50 was found to be 1.09 nM.
For the compound `CCNc1nc(Nc2cc(C#N)cc(C3CCN(C)CC3)c2Cl)nn2c(C#N)cnc12` [Example 351, 2-((2-chloro-5-cyano-3-(1-methyl-4-piperidinyl)phenyl)amino)-4-(ethylamino)imidazo[2,1-f][1,2,4]triazine-7-carbonitrile], the IC50 came to 0.88 nM.
For `CCNc1nc(Nc2cc(C#N)cc(N3CC[C@@H](NC(=O)OC)[C@@H](NC4COC4)C3)c2Cl)nn2c(C#N)cnc12` [Example 747, methyl ((3S,4R)-1-(2-chloro-5-cyano-3-((7-cyano-4-(ethylamino)imidazo[2,1-f][1,2,4]triazin-2-yl)amino)phenyl)-3-(oxetan-3-ylamino)piperidin-4-yl)carbamate], the IC50 was 1.62 nM.
The value for `N#Cc1cc(Nc2nc(NC3CC3)c3ncc(C#N)n3n2)c(Cl)c(N2CC3(CCN(CC(O)CF)CC3)C2)c1` (racemic) [Example 807, (+/−)-2-((2-chloro-5-cyano-3-(7-(3-fluoro-2-hydroxypropyl)-2,7-diazaspiro[3.5]nonan-2-yl)phenyl)amino)-4-(cyclopropylamino)imidazo[2,1-f][1,2,4]triazine-7-carbonitrile] was 0.73 nM; that for `N#Cc1cc(Nc2nc(NC3CC3)c3ncc(C#N)n3n2)c(Cl)c(N2C[C@@H]3CCCN[C@@H]3C2)c1` (racemic) [Example 777, (+/−)-2-((2-chloro-5-cyano-3-((4aS,7aS)-hexahydro-1H-pyrrolo[3,4-b]pyridin-6(2H)-yl)phenyl)amino)-4-(cyclopropylamino)imidazo[2,1-f][1,2,4]triazine-7-carbonitrile] was 0.64 nM; that for `N#Cc1cc(Nc2nc(NC3CC3)c3ncc(C#N)n3n2)c(Cl)c(N2CCN([C@@H]3CS(=O)(=O)C[C@H]3O)CC2)c1` (racemic) [Example 535, rac-2-((2-chloro-5-cyano-3-(4-((3R,4R)-4-hydroxy-1,1-dioxidotetrahydrothiophen-3-yl)piperazin-1-yl)phenyl)amino)-4-(cyclopropylamino)imidazo[2,1-f][1,2,4]triazine-7-carbonitrile] was 0.91 nM.
